Patent publication US8802597B2, “Herbicidal pyrimidines” (E I du Pont de Nemours and Company, priority 2003, dated 2014)
Read-outs that look alike come from different tables or passages of the source.

Key:
Type in all cases: in vivo
[1] = tested on: Surinam grass (Brachiaria decumbens); experiment: Test B pre/postemergence; conditions: Urochloa decumbens; for pest or weed control at 125 g/ha: 125 g ai/ha; for pest or weed control at 500 g/ha: 500 g ai/ha
Summary of the method: (§1)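 Plants treated pre- or postemergence were compared visually with controls after 13 to 15 days. Ratings ran from 0, no effect, to 100, complete control.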

[2] = tested on: velvetleaf (Abutilon theophrasti); experiment: Test B pre/postemergence; conditions: Abutilon theophrasti; for pest or weed control at 125 g/ha: 125 g ai/ha; for pest or weed control at 500 g/ha: 500 g ai/ha
Summary of the method: as §1

[3] = tested on: crabgrass (Digitaria sanguinalis); experiment: Test B pre/postemergence; conditions: Digitaria sanguinalis; for pest or weed control at 125 g/ha: 125 g ai/ha; for pest or weed control at 500 g/ha: 500 g ai/ha
Summary of the method: as §1

[4] = tested on: corn (Zea mays); experiment: Test B pre/postemergence; conditions: Zea mays
Summary of the method: as §1

[5] = tested on: pigweed (Amaranthus retroflexus); experiment: Test B pre/postemergence; conditions: Amaranthus retroflexus; for pest or weed control at 125 g/ha: 125 g ai/ha; for pest or weed control at 500 g/ha: 500 g ai/ha
Summary of the method: as §1

[6] = tested on: cocklebur (Xanthium strumarium); experiment: Test B pre/postemergence; conditions: Xanthium strumarium; for pest or weed control at 125 g/ha: 125 g ai/ha; for pest or weed control at 500 g/ha: 500 g ai/ha
Summary of the method: as §1

[7] = tested on: morningglory (Ipomoea coccinea); experiment: Test B pre/postemergence; conditions: Ipomoea; for pest or weed control at 125 g/ha: 125 g ai/ha; for pest or weed control at 500 g/ha: 500 g ai/ha
Summary of the method: as §1

[8] = tested on: wheat (Triticum aestivum); experiment: Test B pre/postemergence; conditions: Triticum aestivum; for plant injury at 125 g/ha: 125 g ai/ha; for plant injury at 500 g/ha: 500 g ai/ha
Summary of the method: as §1

[9] = tested on: giant foxtail (Setaria faberii); experiment: Test B pre/postemergence; conditions: Setaria faberi; for pest or weed control at 125 g/ha: 125 g ai/ha; for pest or weed control at 500 g/ha: 500 g ai/ha
Summary of the method: as §1

[10] = tested on: barnyardgrass (Echinochloa crus-galli); experiment: Test B pre/postemergence; conditions: Echinochloa crus-galli; for pest or weed control at 125 g/ha: 125 g ai/ha; for pest or weed control at 500 g/ha: 500 g ai/ha
Summary of the method: as §1

[11] = tested on: lambsquarters (Chenopodium album); experiment: Test B pre/postemergence; conditions: Chenopodium album; for pest or weed control at 125 g/ha: 125 g ai/ha; for pest or weed control at 500 g/ha: 500 g ai/ha
Summary of the method: as §1

[12] = tested on: umbrella sedge (Cyperus difformis); experiment: Test B flooded paddy test; conditions: Cyperus difformis, Flood, 1000 g ai/ha; scale 0 to 100; read-out: Plant response rating, Sedge, Umbrella
Summary of the method: (§2)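 Rice, umbrella sedge, duck salad and barnyardgrass grown to 2-leaf stage under flooded paddy conditions and treated with formulated test chemicals. Kept in greenhouse 13–15 days, then visually rated against untreated controls on a 0–100 scale (0 no effect, 100 complete control).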

[13] = tested on: duck salad (Heteranthera limosa); experiment: Test B flooded paddy test; conditions: Heteranthera limosa, Flood, 1000 g ai/ha; scale 0 to 100; read-out: Plant response rating, Ducksalad
Summary of the method: as §2

[14] = tested on: barnyardgrass (Echinochloa crus-galli); experiment: Test B flooded paddy test; conditions: Echinochloa crus-galli, Flood, 1000 g ai/ha; scale 0 (no effect) to 100 (complete control); read-out: Plant response rating, Barnyardgrass
Summary of the method: as §2

[15] = tested on: rice (Oryza sativa); experiment: Test B flooded paddy test; conditions: Oryza sativa, Flood, 1000 g ai/ha; scale 0 to 100; read-out: Plant response rating, Rice
Summary of the method: as §2

[16] = tested on: wild oat (Avena fatua); experiment: Test B postemergence; conditions: Avena fatua, post-emergence
Summary of the method: as §1

[17] = tested on: blackgrass (Alopecurus myosuroides); experiment: Test B postemergence; conditions: Alopecurus myosuroides, post-emergence
Summary of the method: as §1

[18] = pre-emergence, Preemergence, scale 0 to 100 (0 no effect, 100 complete control), read-out: Plant response rating, Wheat

## CCOC(=O)c1nc(C2CC2)nc(NN)c1Br [Compound 42]
[1]; post-emergence, Postemergence, scale 0 to 100 (0 no effect, 100 complete control), read-out: Surinam Grass plant response rating
  pest or weed control at 125 g/ha: 0%
[1]; post-emergence, Postemergence, scale 0 to 100, read-out: Plant response rating, Surinam Grass
  pest or weed control at 500 g/ha: 10%
[1]; pre-emergence, Preemergence, scale 0 to 100 (0 no effect, 100 complete control), read-out: Plant response rating, Surinam Grass
  pest or weed control at 125 g/ha: 0%
[1]; pre-emergence, Preemergence, scale 0 to 100 (0 no effect, 100 complete control), read-out: Surinam Grass plant response rating
  pest or weed control at 500 g/ha: 20%
[2]; post-emergence, Postemergence, scale 0 to 100 (0 no effect, 100 complete control), read-out: Velvetleaf plant response rating
  pest or weed control at 125 g/ha: 50%
[2]; post-emergence, Postemergence, scale 0 to 100, read-out: Plant response rating, Velvetleaf
  pest or weed control at 500 g/ha: 80%
[2]; pre-emergence, Preemergence, scale 0 to 100 (0 no effect, 100 complete control), read-out: Plant response rating, Velvetleaf
  pest or weed control at 125 g/ha: 10%
[2]; pre-emergence, Preemergence, scale 0 to 100 (0 no effect, 100 complete control), read-out: Velvetleaf plant response rating
  pest or weed control at 500 g/ha: 70%
[3]; post-emergence, Postemergence, scale 0 to 100 (0 no effect, 100 complete control), read-out: Crabgrass plant response rating
  pest or weed control at 125 g/ha: 0%
[3]; post-emergence, Postemergence, scale 0 to 100, read-out: Plant response rating, Crabgrass
  pest or weed control at 500 g/ha: 30%
[3]; pre-emergence, Preemergence, scale 0 to 100 (0 no effect, 100 complete control), read-out: Plant response rating, Crabgrass
  pest or weed control at 125 g/ha: 0%
[3]; pre-emergence, Preemergence, scale 0 to 100 (0 no effect, 100 complete control), read-out: Crabgrass plant response rating
  pest or weed control at 500 g/ha: 20%
[4]; post-emergence, Postemergence, 125 g ai/ha, scale 0 to 100 (0 no effect, 100 complete control), read-out: Corn plant response rating
  plant injury at 125 g/ha: 0%
[4]; post-emergence, Postemergence, 500 g ai/ha, scale 0 to 100
  Corn plant response rating (crop injury, 0 = no effect, 100 = complete kill) at 500 g/ha: 0%
[4]; pre-emergence, Preemergence, 125 g ai/ha, scale 0 to 100 (0 no effect, 100 complete control)
  Corn plant response rating (crop injury, 0 = no effect, 100 = complete kill) at 125 g/ha: 0%
[4]; pre-emergence, Preemergence, 500 g ai/ha, scale 0 to 100 (0 no effect, 100 complete control), read-out: Corn plant response rating
  plant injury at 500 g/ha: 0%
[5]; post-emergence, Postemergence, scale 0 to 100 (0 no effect, 100 complete control), read-out: Pigweed plant response rating
  pest or weed control at 125 g/ha: 80%
[5]; post-emergence, Postemergence, scale 0 to 100, read-out: Plant response rating, Pigweed
  pest or weed control at 500 g/ha: 90%
[5]; pre-emergence, Preemergence, scale 0 to 100 (0 no effect, 100 complete control), read-out: Plant response rating, Pigweed
  pest or weed control at 125 g/ha: 50%
[5]; pre-emergence, Preemergence, scale 0 to 100 (0 no effect, 100 complete control), read-out: Pigweed plant response rating
  pest or weed control at 500 g/ha: 90%
[6]; post-emergence, Postemergence, scale 0 to 100 (0 no effect, 100 complete control), read-out: Cocklebur plant response rating
  pest or weed control at 125 g/ha: 80%
[6]; post-emergence, Postemergence, scale 0 to 100, read-out: Plant response rating, Cocklebur
  pest or weed control at 500 g/ha: 90%
[6]; pre-emergence, Preemergence, scale 0 to 100 (0 no effect, 100 complete control), read-out: Plant response rating, Cocklebur
  pest or weed control at 125 g/ha: 40%
[6]; pre-emergence, Preemergence, scale 0 to 100 (0 no effect, 100 complete control), read-out: Cocklebur plant response rating
  pest or weed control at 500 g/ha: 70%
[7]; post-emergence, Postemergence, scale 0 to 100 (0 no effect, 100 complete control), read-out: Morningglory plant response rating
  pest or weed control at 125 g/ha: 80%
[7]; post-emergence, Postemergence, scale 0 to 100, read-out: Plant response rating, Morningglory
  pest or weed control at 500 g/ha: 90%
[7]; pre-emergence, Preemergence, scale 0 to 100 (0 no effect, 100 complete control), read-out: Plant response rating, Morningglory
  pest or weed control at 125 g/ha: 20%
[7]; pre-emergence, Preemergence, scale 0 to 100 (0 no effect, 100 complete control), read-out: Morningglory plant response rating
  pest or weed control at 500 g/ha: 80%
[8]; post-emergence, Postemergence, scale 0 to 100 (0 no effect, 100 complete control), read-out: Wheat plant response rating
  plant injury at 125 g/ha: 50%
[8]; post-emergence, Postemergence, scale 0 to 100, read-out: Plant response rating, Wheat
  plant injury at 500 g/ha: 50%
[8]; [18]
  plant injury at 125 g/ha: 10%
  plant injury at 500 g/ha: 10%
[9]; post-emergence, Postemergence, scale 0 to 100 (0 no effect, 100 complete control), read-out: Foxtail, Giant plant response rating
  pest or weed control at 125 g/ha: 0%
[9]; post-emergence, Postemergence, scale 0 to 100, read-out: Plant response rating, Foxtail, Giant
  pest or weed control at 500 g/ha: 0%
[9]; pre-emergence, Preemergence, scale 0 to 100 (0 no effect, 100 complete control), read-out: Plant response rating, Foxtail, Giant
  pest or weed control at 125 g/ha: 0%
[9]; pre-emergence, Preemergence, scale 0 to 100 (0 no effect, 100 complete control), read-out: Foxtail, Giant plant response rating
  pest or weed control at 500 g/ha: 0%
[10]; post-emergence, Postemergence, scale 0 to 100 (0 no effect, 100 complete control), read-out: Barnyardgrass plant response rating
  pest or weed control at 125 g/ha: 10%
[10]; post-emergence, Postemergence, scale 0 to 100, read-out: Plant response rating, Barnyardgrass
  pest or weed control at 500 g/ha: 30%
[10]; pre-emergence, Preemergence, scale 0 to 100 (0 no effect, 100 complete control), read-out: Plant response rating, Barnyardgrass
  pest or weed control at 125 g/ha: 0%
[10]; pre-emergence, Preemergence, scale 0 to 100 (0 no effect, 100 complete control), read-out: Barnyardgrass plant response rating
  pest or weed control at 500 g/ha: 0%
[11]; post-emergence, Postemergence, scale 0 to 100 (0 no effect, 100 complete control), read-out: Lambsquarters plant response rating
  pest or weed control at 125 g/ha: 80%
[11]; post-emergence, Postemergence, scale 0 to 100, read-out: Plant response rating, Lambsquarters
  pest or weed control at 500 g/ha: 90%
[11]; pre-emergence, Preemergence, scale 0 to 100 (0 no effect, 100 complete control), read-out: Plant response rating, Lambsquarters
  pest or weed control at 125 g/ha: 40%
[11]; pre-emergence, Preemergence, scale 0 to 100 (0 no effect, 100 complete control), read-out: Lambsquarters plant response rating
  pest or weed control at 500 g/ha: 90%
[12]
  pest or weed control at 1000 g/ha: 0%
[13]
  pest or weed control at 1000 g/ha: 0%
[14]
  pest or weed control at 1000 g/ha: 0%
[15]
  plant injury at 1000 g/ha: 0%
[16]; 125 g ai/ha, scale 0 to 100 (0 no effect, 100 complete control), read-out: Oat, Wild plant response rating
  pest or weed control at 125 g/ha: 0%
[16]; 500 g ai/ha, scale 0 to 100, read-out: Plant response rating, Oat, Wild
  pest or weed control at 500 g/ha: 0%
[17]; 125 g ai/ha, scale 0 to 100 (0 no effect, 100 complete control), read-out: Blackgrass plant response rating
  pest or weed control at 125 g/ha: 30%
[17]; 500 g ai/ha, scale 0 to 100, read-out: Plant response rating, Blackgrass
  pest or weed control at 500 g/ha: 60%
